For data set [1], the target named is β-galactosidase (Escherichia coli, UniProt P00722). The data set is described as follows: glycosidase inhibition, β-galactosidase (Escherichia coli). Type of data set: biochemical. The text has this:
(§1) The glycosidase inhibitory activities (IC50 (µM)) of amidines 5 and 6 on a panel of six glycosidases are presented in table 1 and compared with structurally related isofagomine (3) and amidine 4.

Data set [2] has as its target T1, α-galactosidase (Coffea arabica, UniProt Q42656). Nature of the data set: glycosidase inhibition, α-galactosidase. Type of data set: biochemical.
Source text: as §1

The target of data set [3] is β-glucosidase. Nature of the data set: glycosidase inhibition, β-glucosidase. Format: biochemical. The note with it: β-glucosidase from almonds, pH 6.8.
Source text: as §1

The target in data set [4] is T2, β-galactosidase (Aspergillus oryzae, UniProt Q2UCU3). Nature of the data set: glycosidase inhibition, β-galactosidase (Aspergillus oryzae). Format: biochemical.
Source text: as §1

Data set [5] is described as follows: pKa determination by NMR titration in D2O. The note with it: for pH* at which degradation started: during NMR titration in D2O; for pKa: D2O. Format: physicochemical. The text has this:
The pKa values for azasugars have been determined by NMR spectroscopy in other studies. This methodology was also applied in this study to determine the pKa value of 6. […] The sigmoidal curve is missing points at high pH* values (greater than 11) because 6 started degrading at roughly pH* 10.5. Recording of both a ^1H NMR and ^13C HSQC spectra at each titration point allowed us to track the changes in chemical shifts at pH levels higher than where the degradation initially started. The pKa of amidine 5 was determined at even lower accuracy than for 6, because it started degrading at roughly pH* 9.4, where there is no indication of 5 being deprotonated.

Data set [6] concerns all tested enzymes (panel of six glycosidases). Nature of the data set: glycosidase inhibition, whole panel of six glycosidases. The note with it: for glycosidase inhibition in words: all enzymes in the panel. Format: biochemical.
Source text: as §1

Another data set deals with α-glucosidase. The data set is described as follows: glycosidase inhibition, α-glucosidase. Format: biochemical. The settings on record: α-glucosidase from Saccharomyces cerevisiae, pH 6.8.
Source text: as §1

The target of data set [7] is T3, α-mannosidase (Canavalia ensiformis, UniProt C0HJB3).
T3 sequence (C0HJB3 1-981): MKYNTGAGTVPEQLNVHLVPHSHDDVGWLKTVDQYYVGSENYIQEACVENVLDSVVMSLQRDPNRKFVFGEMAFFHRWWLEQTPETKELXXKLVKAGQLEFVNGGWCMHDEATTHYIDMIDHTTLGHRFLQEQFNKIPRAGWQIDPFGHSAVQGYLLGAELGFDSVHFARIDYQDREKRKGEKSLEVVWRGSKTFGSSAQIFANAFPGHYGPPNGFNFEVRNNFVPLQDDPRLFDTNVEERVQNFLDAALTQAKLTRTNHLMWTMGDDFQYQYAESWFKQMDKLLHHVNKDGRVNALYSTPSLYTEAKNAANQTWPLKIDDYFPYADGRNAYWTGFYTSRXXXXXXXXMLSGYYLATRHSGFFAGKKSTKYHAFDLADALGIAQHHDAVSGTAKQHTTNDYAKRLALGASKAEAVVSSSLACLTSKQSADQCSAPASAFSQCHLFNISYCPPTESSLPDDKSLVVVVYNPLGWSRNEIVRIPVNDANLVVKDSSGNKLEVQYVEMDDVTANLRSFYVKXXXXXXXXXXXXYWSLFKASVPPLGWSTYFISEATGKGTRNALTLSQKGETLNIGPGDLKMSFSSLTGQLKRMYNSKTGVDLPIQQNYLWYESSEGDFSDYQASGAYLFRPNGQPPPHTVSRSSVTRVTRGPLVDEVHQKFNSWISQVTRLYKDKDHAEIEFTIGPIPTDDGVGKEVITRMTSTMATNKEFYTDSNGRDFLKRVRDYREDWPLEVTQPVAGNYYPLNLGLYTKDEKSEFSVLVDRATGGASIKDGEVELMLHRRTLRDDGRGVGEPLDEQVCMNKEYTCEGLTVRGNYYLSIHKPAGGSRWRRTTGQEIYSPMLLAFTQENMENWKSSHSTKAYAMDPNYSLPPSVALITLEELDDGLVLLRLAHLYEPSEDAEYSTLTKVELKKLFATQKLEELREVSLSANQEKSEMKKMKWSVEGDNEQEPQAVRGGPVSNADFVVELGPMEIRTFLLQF
The data set is described as follows: glycosidase inhibition, α-mannosidase. Format: biochemical. The settings on record: α-mannosidase from jack beans, pH 5.6.
Source text: as §1

The conditions of data set [8]: cited from earlier work.
Data set [9] addresses T1, α-galactosidase. Details: key to inhibition: NI = no inhibition. The settings on record: α-galactosidase from green coffee beans, pH 6.8; cited from earlier work.
Data set [10] concerns the target T3, α-mannosidase. The note with it: α-mannosidase from jack beans, pH 5.6; cited from earlier work.
Data set [11] has as its target β-glucosidase. The settings on record: cited from earlier work.
For data set [12], the target named is T2, β-galactosidase. The settings on record: β-galactosidase from Aspergillus oryzae, pH 6.8; cited from earlier work.
[13] abbreviates: β-glucosidase from almonds, pH 6.8.

Like-named read-outs stand apart in the source and are kept apart here.

T2 sequence (Q2UCU3 19-1005): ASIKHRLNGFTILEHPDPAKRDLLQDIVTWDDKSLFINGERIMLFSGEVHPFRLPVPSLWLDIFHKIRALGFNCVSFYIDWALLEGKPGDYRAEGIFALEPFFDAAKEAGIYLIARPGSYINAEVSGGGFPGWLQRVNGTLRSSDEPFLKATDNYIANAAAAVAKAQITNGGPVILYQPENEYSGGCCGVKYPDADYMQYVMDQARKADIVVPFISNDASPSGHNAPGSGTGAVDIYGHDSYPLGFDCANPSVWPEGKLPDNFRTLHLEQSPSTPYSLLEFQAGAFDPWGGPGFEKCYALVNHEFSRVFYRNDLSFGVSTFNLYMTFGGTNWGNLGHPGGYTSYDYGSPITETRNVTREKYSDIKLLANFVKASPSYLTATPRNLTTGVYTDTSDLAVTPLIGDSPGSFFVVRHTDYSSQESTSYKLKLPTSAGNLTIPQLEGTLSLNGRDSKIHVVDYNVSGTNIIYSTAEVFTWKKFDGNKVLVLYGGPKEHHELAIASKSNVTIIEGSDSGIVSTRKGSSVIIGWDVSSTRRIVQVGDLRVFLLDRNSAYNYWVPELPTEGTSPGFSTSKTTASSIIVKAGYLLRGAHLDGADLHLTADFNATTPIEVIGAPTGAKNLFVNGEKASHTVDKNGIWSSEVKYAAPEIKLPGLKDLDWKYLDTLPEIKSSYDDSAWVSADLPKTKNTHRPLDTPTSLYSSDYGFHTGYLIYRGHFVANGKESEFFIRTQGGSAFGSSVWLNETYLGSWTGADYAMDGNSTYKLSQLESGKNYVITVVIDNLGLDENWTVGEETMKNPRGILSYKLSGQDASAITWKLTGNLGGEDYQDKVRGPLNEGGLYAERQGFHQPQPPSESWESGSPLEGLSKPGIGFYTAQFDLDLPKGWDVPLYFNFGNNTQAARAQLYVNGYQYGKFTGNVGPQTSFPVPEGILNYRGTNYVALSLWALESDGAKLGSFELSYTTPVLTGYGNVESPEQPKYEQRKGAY
T1 sequence (Q42656 16-378): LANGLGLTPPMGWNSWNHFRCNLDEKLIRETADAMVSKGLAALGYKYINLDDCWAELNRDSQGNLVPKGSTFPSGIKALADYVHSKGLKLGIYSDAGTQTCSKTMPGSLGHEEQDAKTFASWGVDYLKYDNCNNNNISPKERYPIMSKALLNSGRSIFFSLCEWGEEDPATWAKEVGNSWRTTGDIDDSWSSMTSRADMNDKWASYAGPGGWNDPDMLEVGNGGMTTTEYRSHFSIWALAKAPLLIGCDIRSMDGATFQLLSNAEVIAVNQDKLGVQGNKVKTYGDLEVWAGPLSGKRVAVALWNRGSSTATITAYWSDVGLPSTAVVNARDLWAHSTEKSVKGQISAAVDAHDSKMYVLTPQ
Chain of β-galactosidase (Escherichia coli, UniProt P00722) (P00722 2-1024 limits assumed): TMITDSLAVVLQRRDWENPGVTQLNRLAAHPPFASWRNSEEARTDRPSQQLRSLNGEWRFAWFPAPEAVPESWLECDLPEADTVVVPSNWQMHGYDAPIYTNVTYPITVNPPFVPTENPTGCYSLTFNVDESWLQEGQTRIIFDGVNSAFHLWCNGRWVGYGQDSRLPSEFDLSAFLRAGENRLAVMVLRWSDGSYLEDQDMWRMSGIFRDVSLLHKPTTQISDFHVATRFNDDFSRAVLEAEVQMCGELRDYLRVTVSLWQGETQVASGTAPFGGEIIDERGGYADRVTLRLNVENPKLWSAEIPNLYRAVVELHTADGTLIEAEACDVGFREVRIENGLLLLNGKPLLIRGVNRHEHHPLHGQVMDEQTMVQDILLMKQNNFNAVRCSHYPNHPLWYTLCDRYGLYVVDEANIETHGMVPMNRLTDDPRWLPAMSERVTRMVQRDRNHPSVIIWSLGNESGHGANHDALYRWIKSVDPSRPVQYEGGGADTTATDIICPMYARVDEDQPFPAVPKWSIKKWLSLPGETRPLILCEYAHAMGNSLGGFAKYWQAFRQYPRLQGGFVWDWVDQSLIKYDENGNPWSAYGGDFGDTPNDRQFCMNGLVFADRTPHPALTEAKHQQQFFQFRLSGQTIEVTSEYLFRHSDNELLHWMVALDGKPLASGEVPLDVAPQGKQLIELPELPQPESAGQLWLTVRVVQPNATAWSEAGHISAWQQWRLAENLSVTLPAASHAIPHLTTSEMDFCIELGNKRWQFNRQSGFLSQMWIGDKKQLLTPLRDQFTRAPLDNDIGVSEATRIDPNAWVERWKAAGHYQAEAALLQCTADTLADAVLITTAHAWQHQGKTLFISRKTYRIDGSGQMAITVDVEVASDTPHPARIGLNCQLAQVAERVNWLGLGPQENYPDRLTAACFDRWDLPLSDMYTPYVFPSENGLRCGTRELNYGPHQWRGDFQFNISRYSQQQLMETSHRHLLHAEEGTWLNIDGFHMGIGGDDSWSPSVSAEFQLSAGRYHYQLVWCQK

The term IC50 denotes the midpoint of a concentration-inhibition curve. As to `N=C1NC[C@@H](O)[C@H](O)[C@H]1CO` [compound 5], the IC50 on β-galactosidase [1] (β-galactosidase from Escherichia coli, pH 6.8, read-out: IC50) is > 50 µM; at α-galactosidase [2] (α-galactosidase from green coffee beans, pH 6.8, read-out: IC50), > 50 µM; at β-glucosidase [3], > 50 µM; at β-galactosidase [4] (β-galactosidase from Aspergillus oryzae, pH 6.8, read-out: IC50), > 50 µM; in data set [6] (all tested enzymes, read-out: IC50 against all tested enzymes), > 50 µM; against α-glucosidase, > 50 µM. The IC50 on α-mannosidase [7] is > 50 µM. The “pH* at which degradation started” value in [5] is listed as ~9.4. Further, in data set [6], the “glycosidase inhibition in words” value was “very poor inhibitor”.
What is called pKa is the negative logarithm of the acid dissociation constant. Take `NC1=N[C@H](CO)[C@@H](O)[C@H](O)[C@H]1O` [compound 2, ᴅ-glucoamidine]: the pKa in data set [8] was ≥ 10.5. Also, the “fold stronger base than 1” value in data set [8] (compared with 1-deoxynojirimycin (1)) is “roughly 7900 fold”.
Take `N=C1[C@H](CO)[C@@H](O)[C@H](O)CN1Cc1ccccc1` [compound 6]: the IC50 against β-galactosidase [1], against α-galactosidase [2], against β-glucosidase [3], on β-galactosidase [4], against α-glucosidase and on α-mannosidase [7] was > 50 µM throughout. Moreover, the pKa in [5] (inflection point of 2-Ha chemical shift versus pH* (pH measured in D2O), read-out: pKa*) was > 11; in data set [5] (pKa* corrected with a correction factor, read-out: pKa (corrected)), > 10.6. Also, the “pH* at which degradation started” value in data set [5] is ~10.5. Further, in [6], the “glycosidase inhibition in words” value is listed as “very weak inhibitor”.
A word on the Ki: it is the dissociation constant of the complex between target and ligand, obtained from inhibition or displacement. For the compound `N=C1NC[C@H](CO)[C@@H](O)[C@@H]1O` [compound 4], at α-galactosidase [9], the inhibition entry was “NI^g,i”. Also, the Ki was 0.75 µM on α-mannosidase [10], 450 µM on β-glucosidase [11] (setting [13]) and 17400 µM on β-galactosidase [12].
As to `OC[C@H]1CNC[C@@H](O)[C@@H]1O` [compound 3, isofagomine], the results for the IC50 on α-galactosidase [9], at α-mannosidase [10] and on β-galactosidase [12] were > 2000 µM, 250 µM and 270 µM, respectively. Besides, the Ki at β-glucosidase [11] (almond β-glucosidase) and on β-glucosidase [11] (setting [13]) was 0.11 µM in each case.
